Data published in ChEMBL document CHEMBL1150506, “S-nitrosation of proteins by N-methyl-N-nitrosoanilines” (Bioorg Med Chem Lett, 1996).

Target: not listed separately
Assay: (§1) Pseudo-first order rate constant for inhibition of thiol-dependent papain enzyme
Work on `CN(N=O)c1ccc(O)cc1` yielded a Ki of 0.009 min⁻¹. Compound `CN(C)c1ccc(N(C)N=O)cc1` has a Ki of 0.243 min⁻¹. `CN(N=O)c1cc(O)ccc1O` [DEPHOSTATIN] gave a Ki of 0.328 min⁻¹.

Target: T1, Papain (Carica papaya, UniProt P00784)
T1 sequence (P00784 whole entry): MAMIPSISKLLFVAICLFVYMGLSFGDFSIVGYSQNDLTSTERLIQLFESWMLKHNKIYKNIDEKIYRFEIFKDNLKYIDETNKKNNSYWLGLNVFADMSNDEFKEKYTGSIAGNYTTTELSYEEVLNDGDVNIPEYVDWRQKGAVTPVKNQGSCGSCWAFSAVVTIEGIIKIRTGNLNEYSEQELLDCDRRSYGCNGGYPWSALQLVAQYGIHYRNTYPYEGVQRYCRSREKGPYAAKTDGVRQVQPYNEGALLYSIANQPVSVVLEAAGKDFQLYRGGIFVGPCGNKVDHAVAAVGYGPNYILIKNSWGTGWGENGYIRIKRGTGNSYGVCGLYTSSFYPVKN
Assay: as §1
In the case of `CN(N=O)c1ccc(Cl)cc1`, the “pseudo-first-order inhibition rate constant” value is reported as 0.017 min⁻¹. For `CN(N=O)c1cccc(O)c1`, the “pseudo-first-order inhibition rate constant” value was 0.036 min⁻¹. For `CN(N=O)c1ccccc1`, the “pseudo-first-order inhibition rate constant” value was 0.057 min⁻¹. With `CN(N=O)c1ccccc1O` the “pseudo-first-order inhibition rate constant” value was 0.011 min⁻¹. For `CN(N=O)c1ccccc1[N+](=O)[O-]`, the “pseudo-first-order inhibition rate constant” value was 0.026 min⁻¹.
